Source: US4450269A, “Mono-5-substituted-3-chloro-4H-1,2,6-thiadiazin-4-one antifungal agents” (FMC Corporation, priority 1980, dated 1984)

Test system: Cladosporium cucumerinum
Experiment: Mycelial growth test
Type: cell-based
Conditions: Cladosporium cucumerinum, CC, read-out: Percent Fungus Growth Inhibition; for inhibition at 5 ppm / inhibition at 10 ppm / inhibition at 40 ppm: 72 h; for inhibition at 20 ppm: CC20, 72 h
Source text: |CC = Cladosporium cucumerinum

Compound	inhibition at 5 ppm [%]	inhibition at 10 ppm [%]	inhibition at 40 ppm [%]	inhibition at 20 ppm [%]
Cc1ccc(Oc2nsnc(Cl)c2=O)c(Br)c1 [Compound 57, 3-[(2-bromo-4-methyl)-phenoxy]-5-chloro-4H--1,2,6-thiadiazin-4-one]	42	56	78	78
CC(=O)Nc1ccc(Oc2nsnc(Cl)c2=O)cc1 [Compound 8, 5-(4-acetylaminophenoxy)-3-chloro-4H--1,2,6-thiadiazin-4-one]	50	58	100	67
CSc1ccc(Oc2nsnc(Cl)c2=O)cc1 [Compound 39, 3-chloro-5-[(4-methylthio)phenoxy]-4H-1,2,6,-thiadiazin-4-one]	16	16	32	23
O=C(O)c1ccc(Oc2nsnc(Cl)c2=O)cc1 [Compound 50, 3-(4-carboxyphenoxy)-5-chloro-4H--1,2,6-thiadiazin-4-one]	58	54	100	73
CNC(=O)Nc1ccc(Oc2nsnc(Cl)c2=O)cc1 [Compound 28, 3-chloro-5-[4-(3-methylureido)-phenoxy]-4H--1,2,6-thiadiazin-4-one]	14	26	60	26
CC(=O)Nc1cccc(Oc2nsnc(Cl)c2=O)c1 [Compound 42, 3-[(3-N--acetylamino)-phenoxy]-5-chloro-4H--1,2,6-thiadiazin-4-one]	14	22	18	14
O=c1c(Cl)nsnc1Oc1c(Cl)cccc1Cl [Compound 18, 3-chloro-5-(2,6-dichlorophenoxy)-4H--1,2,6-thiadiazin-4-one]	83	100	100	100
Cc1cc(Cl)c(Oc2nsnc(Cl)c2=O)cc1C [Compound 58, 3-chloro-5-[(2-chloro-4,5-dimethyl)phenoxy]-4H--1,2,6-thiadiazin-4-one]	44	44	61	42
O=c1c(Cl)nsnc1Oc1cccc(Cl)c1Cl [Compound 19, 3-chloro-5-(2,3-dichlorophenoxy)-4H--1,2,6-thiadiazin-4-one]	100	100	100	100
O=c1c(Cl)nsnc1Oc1ccc(Cl)cc1 [Compound 12, 3-chloro-5-(4-chlorophenoxy)-4H--1,2,6-thiadiazin-4-one]	63	58	100	71
O=c1c(Cl)nsnc1Oc1ccc(O)cc1 [Compound 35, 3-chloro-5-(4-hydroxyphenoxy)-4H-1,2,6-thiadiazin-4-one]	0	0	92	23
O=C(O)Cc1ccccc1Oc1nsnc(Cl)c1=O [Compound 45, 3-(2-carboxymethylphenoxy)-5-chloro-4H--1,2,6-thiadiazin-4-one]	0	0	0	12
CCCCOc1ccc(Oc2nsnc(Cl)c2=O)cc1 [Compound 6, 3-chloro-5-(4-n-butoxyphenoxy)-4H--1,2,6-thiadiazin-4-one]	0	0	45	0
N#Cc1ccc(Oc2nsnc(Cl)c2=O)cc1 [Compound 10, 3-chloro-5-(4-cyanophenoxy)-4H--1,2,6-thiadiazin-4-one]	9	45	100	100
Cc1cc(Oc2nsnc(Cl)c2=O)ccc1Cl [Compound 54, 3-chloro-5-(4-chloro-3-methylphenoxy)-4H--1,2,6-thiadiazin-4-one]	14	28	50	33
C[S+]([O-])c1ccc(Oc2nsnc(Cl)c2=O)cc1 (stereo not drawn) [Compound 40, 3-chloro-5-[(4-methylsulfinyl)phenoxy]-4H-1,2,6,-thiadiazin-4-one]	0	48	48	32
O=c1c(Cl)nsnc1Oc1ccc(Cl)cc1Cl [Compound 17, 3-chloro-5-(2,4-dichlorophenoxy)-4H--1,2,6-thiadiazin-4-one]	100	100	100	100
O=c1c(Cl)nsnc1Oc1cc(Cl)cc(Cl)c1 [Compound 20, 3-chloro-5-(3,5-dichlorophenoxy)-4H--1,2,6-thiadiazin-4-one]	100	100	100	100
